Counter-ions that a name gives are not always drawn.

T1 sequence (P31645 whole entry): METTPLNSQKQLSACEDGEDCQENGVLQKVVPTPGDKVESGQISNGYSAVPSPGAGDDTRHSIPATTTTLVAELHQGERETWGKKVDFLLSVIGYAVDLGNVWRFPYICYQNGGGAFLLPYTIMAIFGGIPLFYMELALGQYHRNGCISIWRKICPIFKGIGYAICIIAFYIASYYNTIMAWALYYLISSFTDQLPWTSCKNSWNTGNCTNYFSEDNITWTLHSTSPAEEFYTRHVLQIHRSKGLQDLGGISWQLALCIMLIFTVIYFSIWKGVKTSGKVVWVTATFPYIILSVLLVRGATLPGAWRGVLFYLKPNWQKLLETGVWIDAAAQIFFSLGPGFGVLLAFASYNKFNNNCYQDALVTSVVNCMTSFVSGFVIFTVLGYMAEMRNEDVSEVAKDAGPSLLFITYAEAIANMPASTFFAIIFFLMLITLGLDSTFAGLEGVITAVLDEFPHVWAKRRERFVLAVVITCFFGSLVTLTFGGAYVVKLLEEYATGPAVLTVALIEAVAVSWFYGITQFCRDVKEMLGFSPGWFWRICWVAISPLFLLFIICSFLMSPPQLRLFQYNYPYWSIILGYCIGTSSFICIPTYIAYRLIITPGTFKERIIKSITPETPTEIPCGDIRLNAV

System in the first data set: not given
Test: not given
Settings: not given
Turning to `c1ccc(CN2CCC2)c(Cc2ccc3[nH]ccc3c2)c1` [Compound 18, 5-(2-Azetidin-1-ylmethyl-benzyl)-1H-indole], the melting point fell in the range of 128 to 130 °C.
Still for that read-out and setting: the same measure for `CNCc1cc(F)ccc1Cc1ccc2[nH]ccc2c1` [Compound 20, [5-Fluoro-2-(1H-indol-5-ylmethyl)-benzyl]-methyl-amine]: 162 to 163 °C; for `CNCc1ccccc1Cc1ccc2[nH]ccc2c1` (as salt: hydrochloride) [Compound 1, [2-(1H-Indol-5-ylmethyl)-benzyl]-methyl-amine]: 198 to 199 °C.
On the same count and under the same terms, under `c1ccc(N2CCOCC2)c(Cc2ccc3[nH]ccc3c2)c1` [Compound 48, 5-(2-Morpholin-4-yl-benzyl)-1H-indole] stands 189 to 190 °C; under `CNCc1cc(N2CCOCC2)ccc1Cc1ccc2[nH]ccc2c1` (as salt: fumarate) [Compound 39, [2-(1H-Indol-5-ylmethyl)-5-morpholin-4-yl-benzyl]-methyl-amine], 135 to 136 °C.
On the same count and under the same terms, under `CNCc1cc(OC)ccc1Cc1ccc2[nH]ccc2c1` [Compound 34, [2-(1H-Indol-5-ylmethyl)-5-methoxy-benzyl]-methyl-amine] stands 155 to 156 °C; under `CNCc1cc(NS(C)(=O)=O)ccc1Cc1ccc2[nH]ccc2c1` [Compound 41, N-[4-(1H-Indol-5-ylmethyl)-3-methylaminomethyl-phenyl]-methanesulfonamide], 125 to 126 °C; under `CNCc1ccc(C(N)=O)cc1Cc1ccc2[nH]ccc2c1` [Compound 44, 3-(1H-Indol-5-ylmethyl)-4-methylaminomethyl-benzamide], 97 to 100 °C.
As to `CNCc1cc(C#N)ccc1Cc1ccc2[nH]ccc2c1` [Compound 38, 4-(1H-Indol-5-ylmethyl)-3-methylaminomethyl-benzonitrile], the melting point lay within 144 to 145 °C.
Still for that read-out and setting: under `c1cc2c(c(Cc3ccc4[nH]ccc4c3)c1)CNCC2` stands 173 to 174 °C; under `CNCc1scnc1Cc1ccc2[nH]ccc2c1` [Compound 45, [4-(1H-Indol-5-ylmethyl)-thiazol-5-ylmethyl]-methyl-amine], 152 to 153 °C; under `O=C1CNCCN1c1ccccc1Cc1ccc2[nH]ccc2c1` [Compound 42, 1-[2-(1H-Indol-5-ylmethyl)-phenyl]-piperazin-2-one], 100 to 102 °C.
Still for that read-out and setting: under `CNCc1ccc(OC)cc1Cc1ccc2[nH]ccc2c1` [Compound 33, [2-(1H-Indol-5-ylmethyl)-4-methoxy-benzyl]-methyl-amine] stands 157 to 158 °C; under `CNCc1ccccc1Cc1ccc2[nH]cc(C#N)c2c1` [Compound 29, 5-(2-Methylaminomethyl-benzyl)-1H-indole-3-carbonitrile], 179 to 180 °C; under `CNCc1ccccc1Cc1ccc2cc[nH]c2c1` [Compound 15, [2-(1H-Indol-6-ylmethyl)-benzyl]-methyl-amine], 132 °C.
Still for that read-out and setting: the same measure for `c1ccc(Cn2ccnc2)c(Cc2ccc3[nH]ccc3c2)c1` [Compound 25, 5-(2-Imidazol-1-ylmethyl-benzyl)-1H-indole]: 61 to 67 °C.
In turn, `CNCc1ccccc1C(O)c1ccc2[nH]ccc2c1` (stereo not drawn) [Compound 24, (1H-Indol-5-yl)-(2-methylaminomethyl-phenyl)-methanol] showed a melting point of 75 to 78 °C.
The same measure, in the same setting: under `NCC(O)c1ccccc1Cc1ccc2[nH]ccc2c1` (stereo not drawn) [Compound 47, 2-Amino-1-[2-(1H-indol-5-ylmethyl)-phenyl]-ethanol] stands 70 to 72 °C.
On the same count and under the same terms, under `c1cc2c(c(Cc3ccc4[nH]ccc4c3)c1)CCNC2` stands 194 to 195 °C; under `CNCc1ccc(C#N)cc1Cc1ccc2[nH]ccc2c1` [Compound 43, 3-(1H-Indol-5-ylmethyl)-4-methylaminomethyl-benzonitrile], 160 to 163 °C.
Same read-out and setting: the same measure for `CNCc1cccc(Cc2ccc3[nH]ccc3c2)c1` [Compound 32, [3-(1H-Indol-5-ylmethyl)-benzyl]-methyl-amine]: 153 °C.
`CNCc1ccccc1Cc1cccc2[nH]ccc12` [Compound 16, [2-(1H-Indol-4-ylmethyl)-benzyl]-methyl-amine] returned a melting point of 111 to 112 °C.
Still for that read-out and setting: under `CNCCc1ccccc1Cc1ccc2[nH]ccc2c1` stands 95 to 97 °C; under `CNCc1ccccc1Cc1ccc2[nH]c(S(C)(=O)=O)cc2c1` (as salt: fumarate) [Compound 49, [2-(2-Methanesulfonyl-1H-indol-5-ylmethyl)-benzyl]-methyl-amine], 179 to 180 °C.
Still for that read-out and setting: the same measure for `CNCc1cc(Cl)ccc1Cc1ccc2[nH]ccc2c1` [Compound 27, [5-Chloro-2-(1H-indol-5-ylmethyl)-benzyl]-methyl-amine]: 164 to 165 °C.
The same measure, in the same setting: the same measure for `OCCNCc1ccccc1Cc1ccc2[nH]ccc2c1` [Compound 21, 2-[2-(1H-Indol-5-ylmethyl)-benzylamino]-ethanol]: 117 to 118 °C.

A further data set addresses T1, human serotonin transporter (hSERT) (Homo sapiens, UniProt P31645).
T1 construct: expressed in transfected cells; Tatsumi et al. 1997), membrane preparation
Put plainly: Screening for human serotonin transporter (hSERT) antagonists, scintillation proximity assay, competition with [3H]-Citalopram. Format: binding. The settings on record: membranes of HEK-293 cells, SPA. The protocol:
The screening assay of this example was used to determine the affinity of ligands at the hSERT transporter by competition with [^3H]-Citalopram.
Scintillation Proximity Assay (SPA) works by bringing radioligand within close proximity to the bead's scintillant to stimulate light emission. In this assay, the receptor-containing membranes were pre-coupled to the SPA beads and the binding of the appropriate radioligand to the transporter was measured. The light emission was proportional to the amount of bound radioligand. Unbound radioligand produced no signal as a result of distant proximity to scintillant (lack of energy transfer). […]
Cell membranes were prepared using a membrane preparation buffer of 50 mM TRIS (pH 7.4). […] After a second centrifugation, the pellet was re-homogenized and brought to a final volume determined during the assay. […]
The % inhibition was calculated for each compound tested [(Compound counts per minute (CPM) at maximum concentration-Non-Specific CPM)/Total CPM*100]. […]
[formula] where max=total binding, min=non specific binding, x=concentration (M) of the tested compound and n=Hill slope. The inhibition dissociation constant (Ki) of each compound was determined according to the method of Cheng-Prusoff and then converted into negative logarithm (pKi) of the Ki.
On to `CNCc1ccccc1Cc1ccc2[nH]cc(C#N)c2c1` [Compound 29, 5-(2-Methylaminomethyl-benzyl)-1H-indole-3-carbonitrile], for which the Ki was ~0.1 nM.
